Activity calls are given as the source filed them.
What was measured:
HEK293 [1] = assay: cells; conditions: Homo sapiens
[2] = molecular target: T1, Histone-lysine N-methyltransferase NSD2 (Homo sapiens, UniProt O96028); format: biochemical
T1 sequence (O96028 whole entry): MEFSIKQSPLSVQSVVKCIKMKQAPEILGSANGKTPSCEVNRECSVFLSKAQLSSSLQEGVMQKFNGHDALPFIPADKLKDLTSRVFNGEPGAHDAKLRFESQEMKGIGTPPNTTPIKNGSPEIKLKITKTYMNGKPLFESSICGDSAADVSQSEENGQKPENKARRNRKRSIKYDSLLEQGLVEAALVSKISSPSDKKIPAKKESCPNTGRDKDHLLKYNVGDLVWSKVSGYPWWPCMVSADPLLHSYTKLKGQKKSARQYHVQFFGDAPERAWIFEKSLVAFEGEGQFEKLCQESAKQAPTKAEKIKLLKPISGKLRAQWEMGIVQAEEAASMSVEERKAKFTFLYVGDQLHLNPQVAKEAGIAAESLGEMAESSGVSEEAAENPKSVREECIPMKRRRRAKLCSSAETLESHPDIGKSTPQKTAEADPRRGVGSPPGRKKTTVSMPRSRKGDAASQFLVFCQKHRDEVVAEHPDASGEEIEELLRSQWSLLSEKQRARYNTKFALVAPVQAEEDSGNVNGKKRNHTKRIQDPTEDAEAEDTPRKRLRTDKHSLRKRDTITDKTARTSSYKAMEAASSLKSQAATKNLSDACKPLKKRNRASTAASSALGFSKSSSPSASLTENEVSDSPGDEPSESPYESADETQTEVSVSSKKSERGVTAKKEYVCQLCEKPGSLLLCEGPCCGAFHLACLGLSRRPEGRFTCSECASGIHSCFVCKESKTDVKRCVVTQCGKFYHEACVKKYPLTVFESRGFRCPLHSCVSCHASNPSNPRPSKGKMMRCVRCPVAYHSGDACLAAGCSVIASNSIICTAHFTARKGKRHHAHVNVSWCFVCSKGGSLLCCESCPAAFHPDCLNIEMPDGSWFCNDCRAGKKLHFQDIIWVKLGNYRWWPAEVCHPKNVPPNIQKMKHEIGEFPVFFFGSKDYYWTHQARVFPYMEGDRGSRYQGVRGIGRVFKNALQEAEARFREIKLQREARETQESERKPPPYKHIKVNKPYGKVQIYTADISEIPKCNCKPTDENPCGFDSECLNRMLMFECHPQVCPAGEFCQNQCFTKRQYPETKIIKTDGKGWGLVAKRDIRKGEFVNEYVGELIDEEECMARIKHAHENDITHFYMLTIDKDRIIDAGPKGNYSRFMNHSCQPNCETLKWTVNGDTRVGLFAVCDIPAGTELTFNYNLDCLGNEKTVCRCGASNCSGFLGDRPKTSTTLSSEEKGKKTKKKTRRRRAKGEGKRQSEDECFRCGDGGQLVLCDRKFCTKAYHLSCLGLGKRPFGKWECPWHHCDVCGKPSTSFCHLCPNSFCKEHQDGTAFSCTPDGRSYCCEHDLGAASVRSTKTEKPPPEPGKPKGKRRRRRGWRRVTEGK

HEK293 [3] = assay: cells; conditions: Homo sapiens; remark: listed apart in the source
Hexokinase HKDC1 = molecular target: T2, Hexokinase HKDC1 (Homo sapiens, UniProt Q2TB90); assay: SAR analysis of small molecule inhibitors of hexokinase domain containing I (HKDC1). [Related pubchem assays (depositor defined):AID493160, AID493190]; format: functional
T2 sequence (Q2TB90 whole entry): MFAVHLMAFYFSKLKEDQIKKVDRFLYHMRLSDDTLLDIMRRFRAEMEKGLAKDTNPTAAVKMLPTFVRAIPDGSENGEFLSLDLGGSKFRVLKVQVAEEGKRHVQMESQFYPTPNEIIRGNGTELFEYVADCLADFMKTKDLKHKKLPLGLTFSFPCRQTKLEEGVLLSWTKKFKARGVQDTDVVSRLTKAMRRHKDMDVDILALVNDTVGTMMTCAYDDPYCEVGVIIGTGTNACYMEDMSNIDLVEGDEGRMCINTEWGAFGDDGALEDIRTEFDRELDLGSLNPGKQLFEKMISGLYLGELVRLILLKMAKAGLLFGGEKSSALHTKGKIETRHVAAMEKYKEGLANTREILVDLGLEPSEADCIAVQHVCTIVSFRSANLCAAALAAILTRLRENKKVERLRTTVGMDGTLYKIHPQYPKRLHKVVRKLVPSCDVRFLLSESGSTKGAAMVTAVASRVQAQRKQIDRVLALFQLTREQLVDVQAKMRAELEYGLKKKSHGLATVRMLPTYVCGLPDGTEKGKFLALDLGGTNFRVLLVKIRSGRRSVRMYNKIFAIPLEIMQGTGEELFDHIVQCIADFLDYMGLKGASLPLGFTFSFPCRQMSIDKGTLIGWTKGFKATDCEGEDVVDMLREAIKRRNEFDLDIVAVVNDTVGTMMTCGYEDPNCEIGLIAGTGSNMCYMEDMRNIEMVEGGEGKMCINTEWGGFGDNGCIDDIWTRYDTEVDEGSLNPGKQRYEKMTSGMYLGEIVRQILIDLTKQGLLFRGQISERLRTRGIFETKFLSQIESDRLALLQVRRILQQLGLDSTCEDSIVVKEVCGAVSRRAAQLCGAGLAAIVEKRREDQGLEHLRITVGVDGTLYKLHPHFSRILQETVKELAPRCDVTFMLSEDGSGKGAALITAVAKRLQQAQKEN

Hexokinase-1 = Hexokinase-1 (Homo sapiens, UniProt P19367); assay: SAR analysis of small molecule inhibitors of hexokinase domain containing I (HKDC1) in the hexokinase 1 selectivity assay. [Related pubchem assays (depositor defined):AID493160, AID493190]; format: functional
[4] = Luminescence Cell-Based Dose Response HTS to Identify Inhibitors of 5'UTR Stem-Loop Driven Prion Protein mRNA Translation in H4 Neuroglioblastoma Cells. [Related pubchem assays: 1827 (Project Summary), 1813 (Primary HTS)]; format: functional
[5] = luciferase reporter signal suppression in cells – H4 neuroglioma cells, luminescence, dose response (AID 1990); format: functional, cell-based
[6] = molecular target: Glycogen synthase kinase-3 beta (Homo sapiens, UniProt P49841); assay: Inhibition of Human GSK-3 beta Activity Measured in Biochemical System Using Microfluidics - 2063-05_Inhibitor_Dose_DryPowder_Activity. [Related pubchem assays (depositor defined):AID2709]
[7] = alpha-synuclein stem-loop luciferase translation blockers – H4 neuroglioma cells, luminescence, confirmation (AID 1988); format: functional, cell-based
[8] = molecular target: Glycogen synthase kinase-3 alpha (Homo sapiens, UniProt P49840); assay: Inhibition of Human GSK-3 alpha Activity Measured in Biochemical System Using Microfluidics - 2063-06_Inhibitor_Dose_DryPowder_Activity. [Related pubchem assays (depositor defined):AID2709]
Phospholipase D2 = Phospholipase D2 (Homo sapiens, UniProt O14939); assay: cellular phospholipase D2 inhibition IC50 – cell-based, dose response (AID 602147); format: functional;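 note: cellular assay in HEK293 cells overexpressing GFP-tagged PLD2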
Phospholipase D1 = molecular target: T3, Phospholipase D1 (Homo sapiens, UniProt Q13393); assay: cellular phospholipase D1 inhibition IC50 – cell-based, dose response (AID 602151); format: functional;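 note: cellular PLD1 assay in Calu-1 cells stimulated with PMA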
T3 sequence (Q13393 whole entry): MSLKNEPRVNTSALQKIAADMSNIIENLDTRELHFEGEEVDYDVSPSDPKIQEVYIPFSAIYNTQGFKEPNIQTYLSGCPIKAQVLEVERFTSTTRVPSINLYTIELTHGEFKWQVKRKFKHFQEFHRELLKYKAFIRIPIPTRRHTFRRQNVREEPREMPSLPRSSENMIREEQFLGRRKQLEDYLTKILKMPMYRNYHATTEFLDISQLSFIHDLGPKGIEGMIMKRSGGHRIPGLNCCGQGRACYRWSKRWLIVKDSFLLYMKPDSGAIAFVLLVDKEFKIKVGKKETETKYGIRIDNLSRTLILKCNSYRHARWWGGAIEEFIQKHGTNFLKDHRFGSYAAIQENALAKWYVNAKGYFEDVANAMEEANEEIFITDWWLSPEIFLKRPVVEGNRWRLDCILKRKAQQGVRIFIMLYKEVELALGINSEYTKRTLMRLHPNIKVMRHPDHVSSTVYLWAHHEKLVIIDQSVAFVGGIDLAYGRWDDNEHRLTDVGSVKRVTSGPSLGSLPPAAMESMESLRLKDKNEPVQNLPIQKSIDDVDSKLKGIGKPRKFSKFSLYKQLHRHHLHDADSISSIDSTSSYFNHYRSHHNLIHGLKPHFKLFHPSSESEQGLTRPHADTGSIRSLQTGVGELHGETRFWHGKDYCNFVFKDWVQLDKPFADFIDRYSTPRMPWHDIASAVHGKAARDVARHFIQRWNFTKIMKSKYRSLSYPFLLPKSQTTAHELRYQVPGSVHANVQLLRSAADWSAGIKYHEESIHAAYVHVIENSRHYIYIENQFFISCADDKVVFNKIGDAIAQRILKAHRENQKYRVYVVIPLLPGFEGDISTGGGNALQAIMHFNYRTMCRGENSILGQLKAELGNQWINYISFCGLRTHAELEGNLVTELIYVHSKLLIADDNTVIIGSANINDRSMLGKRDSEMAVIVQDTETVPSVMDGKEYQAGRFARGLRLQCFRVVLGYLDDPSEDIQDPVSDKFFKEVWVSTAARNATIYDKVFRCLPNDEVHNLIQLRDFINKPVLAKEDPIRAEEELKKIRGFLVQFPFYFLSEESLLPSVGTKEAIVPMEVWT

Beta-galactosidase = Beta-galactosidase (Escherichia coli, UniProt Q8VNN2); assay: PubChem AID 485352; format: functional
[9] = molecular target: Type-1 angiotensin II receptor (Homo sapiens, UniProt P30556); assay: antagonism of angiotensin II type 1 receptor – cell-based, uHTS hits, selectivity assay for APJ receptor antagonist project, dose response (AID 463214); format: functional;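 note: antagonist potency against angiotensin II stimulated AT1 response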
[10] = molecular target: Beta-2 adrenergic receptor (Homo sapiens, UniProt P07550); assay: ADRB2 activation measured by internalization – cell-based, FAP fluorogen, flow cytometry, cherry pick 1, dose response (AID 588763); format: functional
[11] = molecular target: Dual specificity tyrosine-phosphorylation-regulated kinase 1A (Rattus norvegicus, UniProt Q63470); format: biochemical, Homo sapiens
Cytochrome P450 1A2 = molecular target: T4, Cytochrome P450 1A2 (Homo sapiens, UniProt P05177);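 note: PubChem cytochrome P450 panel assay, CYP1A2 panel member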
T4 sequence (P05177 whole entry): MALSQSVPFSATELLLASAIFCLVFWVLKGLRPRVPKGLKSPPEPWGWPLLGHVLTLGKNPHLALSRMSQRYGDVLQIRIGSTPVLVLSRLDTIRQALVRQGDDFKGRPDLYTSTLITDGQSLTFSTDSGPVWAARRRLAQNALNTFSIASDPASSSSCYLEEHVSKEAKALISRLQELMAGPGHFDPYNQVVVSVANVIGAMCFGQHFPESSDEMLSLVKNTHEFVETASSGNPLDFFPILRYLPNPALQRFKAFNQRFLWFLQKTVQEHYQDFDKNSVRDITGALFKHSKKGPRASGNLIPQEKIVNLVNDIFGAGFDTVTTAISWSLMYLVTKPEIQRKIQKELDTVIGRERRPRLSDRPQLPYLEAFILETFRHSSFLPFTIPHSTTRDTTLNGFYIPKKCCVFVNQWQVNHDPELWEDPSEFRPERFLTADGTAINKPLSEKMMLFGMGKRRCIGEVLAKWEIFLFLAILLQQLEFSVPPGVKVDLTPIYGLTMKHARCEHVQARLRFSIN

Cytochrome P450 2D6 = Cytochrome P450 2D6 (Homo sapiens, UniProt P10635);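 note: CYP2D6 member of a cytochrome P450 panel assay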
Sequence of Cytochrome P450 2D6 (P10635 whole entry): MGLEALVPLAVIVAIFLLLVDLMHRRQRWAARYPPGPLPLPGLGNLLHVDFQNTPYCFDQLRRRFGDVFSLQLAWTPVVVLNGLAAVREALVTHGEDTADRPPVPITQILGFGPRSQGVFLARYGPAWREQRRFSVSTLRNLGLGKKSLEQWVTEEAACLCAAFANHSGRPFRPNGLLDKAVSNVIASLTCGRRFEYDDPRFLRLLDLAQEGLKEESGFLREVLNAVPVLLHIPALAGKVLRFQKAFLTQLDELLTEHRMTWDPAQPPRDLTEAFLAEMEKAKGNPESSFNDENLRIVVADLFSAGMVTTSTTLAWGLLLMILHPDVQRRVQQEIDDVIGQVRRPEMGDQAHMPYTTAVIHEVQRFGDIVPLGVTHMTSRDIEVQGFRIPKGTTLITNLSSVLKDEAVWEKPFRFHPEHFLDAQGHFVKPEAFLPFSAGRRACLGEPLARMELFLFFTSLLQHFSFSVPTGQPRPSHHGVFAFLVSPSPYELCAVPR

Sequence of Beta-galactosidase (Q8VNN2 whole entry): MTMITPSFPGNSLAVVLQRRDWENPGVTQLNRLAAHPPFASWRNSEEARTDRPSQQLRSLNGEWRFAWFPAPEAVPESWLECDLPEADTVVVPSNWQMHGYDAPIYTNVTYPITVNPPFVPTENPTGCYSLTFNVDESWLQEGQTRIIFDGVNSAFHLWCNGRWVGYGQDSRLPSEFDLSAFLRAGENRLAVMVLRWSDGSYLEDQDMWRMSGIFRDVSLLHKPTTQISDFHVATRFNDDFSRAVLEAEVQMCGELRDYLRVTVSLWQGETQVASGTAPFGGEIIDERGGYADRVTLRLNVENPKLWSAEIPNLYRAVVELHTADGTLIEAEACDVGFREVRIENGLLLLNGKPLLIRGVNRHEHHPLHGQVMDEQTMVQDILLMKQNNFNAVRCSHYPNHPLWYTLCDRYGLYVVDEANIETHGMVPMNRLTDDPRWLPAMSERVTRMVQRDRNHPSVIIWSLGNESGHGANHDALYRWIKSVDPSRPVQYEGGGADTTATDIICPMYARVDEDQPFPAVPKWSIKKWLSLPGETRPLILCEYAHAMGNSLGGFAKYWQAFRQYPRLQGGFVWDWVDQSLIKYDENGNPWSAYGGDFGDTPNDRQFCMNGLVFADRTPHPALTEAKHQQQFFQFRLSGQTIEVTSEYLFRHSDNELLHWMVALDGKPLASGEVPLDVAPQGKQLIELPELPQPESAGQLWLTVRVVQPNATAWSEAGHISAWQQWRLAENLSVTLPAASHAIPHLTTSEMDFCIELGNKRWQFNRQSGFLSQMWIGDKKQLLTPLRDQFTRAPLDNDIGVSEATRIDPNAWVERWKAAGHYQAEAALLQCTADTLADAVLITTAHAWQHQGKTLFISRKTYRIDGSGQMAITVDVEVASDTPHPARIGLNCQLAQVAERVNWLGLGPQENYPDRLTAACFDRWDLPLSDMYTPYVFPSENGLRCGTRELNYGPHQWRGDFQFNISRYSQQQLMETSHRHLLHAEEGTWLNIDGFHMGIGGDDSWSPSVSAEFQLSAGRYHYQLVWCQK
Sequence of Hexokinase-1 (P19367 whole entry, the tested form may be a part): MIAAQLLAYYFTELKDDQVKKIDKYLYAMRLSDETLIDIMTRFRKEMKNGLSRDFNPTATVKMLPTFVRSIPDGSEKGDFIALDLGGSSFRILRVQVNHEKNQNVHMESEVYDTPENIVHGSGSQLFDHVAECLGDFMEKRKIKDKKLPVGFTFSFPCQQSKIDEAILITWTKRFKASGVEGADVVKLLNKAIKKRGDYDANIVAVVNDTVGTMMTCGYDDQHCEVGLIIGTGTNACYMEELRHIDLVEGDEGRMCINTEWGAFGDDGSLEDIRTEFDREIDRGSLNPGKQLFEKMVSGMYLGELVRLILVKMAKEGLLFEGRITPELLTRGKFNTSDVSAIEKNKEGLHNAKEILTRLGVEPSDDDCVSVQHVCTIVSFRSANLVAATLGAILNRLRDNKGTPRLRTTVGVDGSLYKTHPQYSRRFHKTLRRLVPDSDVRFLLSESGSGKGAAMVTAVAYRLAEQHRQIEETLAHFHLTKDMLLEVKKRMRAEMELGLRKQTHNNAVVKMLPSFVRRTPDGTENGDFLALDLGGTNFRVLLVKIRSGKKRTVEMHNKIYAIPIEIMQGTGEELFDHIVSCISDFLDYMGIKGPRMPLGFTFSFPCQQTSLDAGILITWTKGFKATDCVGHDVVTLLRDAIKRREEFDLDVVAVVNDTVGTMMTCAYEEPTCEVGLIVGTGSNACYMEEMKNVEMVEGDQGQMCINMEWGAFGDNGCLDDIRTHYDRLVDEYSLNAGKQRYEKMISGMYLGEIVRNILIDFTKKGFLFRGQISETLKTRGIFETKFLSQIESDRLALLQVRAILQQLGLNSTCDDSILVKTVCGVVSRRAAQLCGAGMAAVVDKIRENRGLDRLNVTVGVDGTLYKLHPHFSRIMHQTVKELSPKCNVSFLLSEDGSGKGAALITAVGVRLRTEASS
Sequence of Phospholipase D2 (O14939 whole entry): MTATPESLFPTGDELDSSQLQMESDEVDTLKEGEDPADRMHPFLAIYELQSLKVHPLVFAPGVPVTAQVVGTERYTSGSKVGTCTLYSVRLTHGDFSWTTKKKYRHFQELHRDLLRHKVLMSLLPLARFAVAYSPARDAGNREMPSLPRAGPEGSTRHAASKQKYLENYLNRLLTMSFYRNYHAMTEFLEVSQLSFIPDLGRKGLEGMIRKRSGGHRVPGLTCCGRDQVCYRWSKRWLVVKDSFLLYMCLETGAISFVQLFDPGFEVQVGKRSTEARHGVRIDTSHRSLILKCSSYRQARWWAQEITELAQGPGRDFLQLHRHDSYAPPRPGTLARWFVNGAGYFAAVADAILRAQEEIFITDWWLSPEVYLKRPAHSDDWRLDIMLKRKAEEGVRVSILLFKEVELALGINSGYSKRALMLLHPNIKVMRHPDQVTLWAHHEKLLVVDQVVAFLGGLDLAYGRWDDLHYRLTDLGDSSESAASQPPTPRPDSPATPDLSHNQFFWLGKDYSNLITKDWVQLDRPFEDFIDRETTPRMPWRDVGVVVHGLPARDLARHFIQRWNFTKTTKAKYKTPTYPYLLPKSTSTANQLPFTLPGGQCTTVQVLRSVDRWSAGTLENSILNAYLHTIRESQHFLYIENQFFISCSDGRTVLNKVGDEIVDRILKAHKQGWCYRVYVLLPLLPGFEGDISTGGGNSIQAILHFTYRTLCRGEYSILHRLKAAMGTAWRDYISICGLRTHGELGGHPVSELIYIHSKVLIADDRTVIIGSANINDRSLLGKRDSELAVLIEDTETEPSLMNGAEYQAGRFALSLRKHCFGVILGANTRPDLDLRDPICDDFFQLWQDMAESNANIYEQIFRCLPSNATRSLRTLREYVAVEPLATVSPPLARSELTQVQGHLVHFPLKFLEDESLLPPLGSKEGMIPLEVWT
Sequence of Glycogen synthase kinase-3 alpha (P49840 whole entry): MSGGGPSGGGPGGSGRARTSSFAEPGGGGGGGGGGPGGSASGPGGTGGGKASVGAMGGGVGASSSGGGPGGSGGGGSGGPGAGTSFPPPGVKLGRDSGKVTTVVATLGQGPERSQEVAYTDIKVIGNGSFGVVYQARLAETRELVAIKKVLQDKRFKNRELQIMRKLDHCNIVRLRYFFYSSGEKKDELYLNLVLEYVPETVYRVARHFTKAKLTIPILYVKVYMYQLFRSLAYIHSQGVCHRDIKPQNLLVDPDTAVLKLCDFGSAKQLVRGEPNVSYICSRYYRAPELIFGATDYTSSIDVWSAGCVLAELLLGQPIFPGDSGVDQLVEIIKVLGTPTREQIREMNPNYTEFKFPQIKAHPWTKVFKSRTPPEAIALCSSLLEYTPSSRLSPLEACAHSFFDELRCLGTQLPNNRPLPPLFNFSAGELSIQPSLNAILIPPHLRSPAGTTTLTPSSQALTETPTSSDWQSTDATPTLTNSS
Sequence of Glycogen synthase kinase-3 beta (P49841 whole entry): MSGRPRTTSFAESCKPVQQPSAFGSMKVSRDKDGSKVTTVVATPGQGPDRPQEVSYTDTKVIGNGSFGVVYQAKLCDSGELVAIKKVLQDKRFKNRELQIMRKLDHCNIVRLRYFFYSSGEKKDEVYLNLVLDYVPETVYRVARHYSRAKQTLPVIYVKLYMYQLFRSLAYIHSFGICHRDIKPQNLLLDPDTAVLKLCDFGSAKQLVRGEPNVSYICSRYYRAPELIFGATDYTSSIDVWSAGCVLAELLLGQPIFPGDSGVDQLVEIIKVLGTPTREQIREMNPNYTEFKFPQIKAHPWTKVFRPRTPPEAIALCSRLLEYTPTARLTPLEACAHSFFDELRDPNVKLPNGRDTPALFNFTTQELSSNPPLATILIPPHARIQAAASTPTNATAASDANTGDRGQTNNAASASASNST
Sequence of Type-1 angiotensin II receptor (P30556 whole entry): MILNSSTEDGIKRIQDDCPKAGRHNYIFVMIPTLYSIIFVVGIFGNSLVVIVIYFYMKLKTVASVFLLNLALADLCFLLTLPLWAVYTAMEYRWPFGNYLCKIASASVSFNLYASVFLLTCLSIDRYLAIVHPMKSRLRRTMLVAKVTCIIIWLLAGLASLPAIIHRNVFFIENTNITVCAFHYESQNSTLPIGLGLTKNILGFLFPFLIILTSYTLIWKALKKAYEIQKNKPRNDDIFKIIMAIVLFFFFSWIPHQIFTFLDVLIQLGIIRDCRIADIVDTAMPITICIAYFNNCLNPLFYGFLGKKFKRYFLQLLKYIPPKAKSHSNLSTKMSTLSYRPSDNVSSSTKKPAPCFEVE
Sequence of Beta-2 adrenergic receptor (P07550 whole entry): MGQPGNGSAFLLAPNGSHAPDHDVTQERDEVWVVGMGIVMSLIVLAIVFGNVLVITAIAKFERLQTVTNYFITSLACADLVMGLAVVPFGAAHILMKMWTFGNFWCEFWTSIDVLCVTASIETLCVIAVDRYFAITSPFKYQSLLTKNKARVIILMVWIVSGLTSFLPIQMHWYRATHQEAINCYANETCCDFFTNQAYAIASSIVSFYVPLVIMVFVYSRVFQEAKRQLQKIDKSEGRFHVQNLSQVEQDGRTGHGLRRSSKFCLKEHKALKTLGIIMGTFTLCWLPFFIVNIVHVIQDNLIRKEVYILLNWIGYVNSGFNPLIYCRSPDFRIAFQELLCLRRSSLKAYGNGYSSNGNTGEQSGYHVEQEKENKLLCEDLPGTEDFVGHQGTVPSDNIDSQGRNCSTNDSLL

NC1(C(=O)O)CSSC1
EC50 (HEK293 [1]): > 59.8 µM (inactive) | AC50 [2]: 14.5 µM (active) | EC50 (HEK293 [3]): > 59.8 µM (inactive)

COc1ccc(CNc2cc3n(c(=O)n2)CCc2cc(OC)c(OC)cc2-3)cc1
IC50 (Hexokinase HKDC1): > 80 µM (inactive) | IC50 (Hexokinase-1): > 80 µM (inactive)

C=CCNc1nc(N)c([N+](=O)[O-])c(Nc2ccccc2OC)n1
EC50 [4]: 11.7 µM (active) | EC50 [5]: 11.4 µM (active) | AC50 [6]: 0.0544 µM (active) | EC50 [7]: 14.2 µM (active) | AC50 [8]: 0.388 µM (active)

O=C(NCCN1CCC(n2c(=O)[nH]c3ccc(F)cc32)CC1)c1cccc2c1C(=O)c1ccccc1-2
IC50 (Phospholipase D2): 0.17 µM (active) | IC50 (Phospholipase D1): 0.007 µM (active)

C[C@H](CN1CCC2(CC1)C(=O)NCN2c1ccccc1)NC(=O)c1cc(Br)c(Br)o1
IC50 (Phospholipase D2): 2.3 µM (active) | IC50 (Phospholipase D1): 0.33 µM (active)

COc1ccc(N2C(=O)CC(N(CCc3ccc(OC)c(OC)c3)C(S)=Nc3ccccc3)C2=O)cc1 (stereo not drawn)
EC50 (HEK293 [1]): > 59.6 µM (inactive) | EC50 (HEK293 [3]): > 59.6 µM (inactive)

O=c1c2cc(Br)ccc2[nH]c(=S)n1Cc1ccccn1
EC50 (Beta-galactosidase): > 40 µM (inactive) | IC50 [9]: 29.7 µM (not active)

CC(=O)c1ccc(OCc2cc(C(=O)N(C)CCOc3ccc(C)cc3)no2)cc1
EC50 [10]: 1.91 µM (active)

Cc1[nH]n(C(N)=S)c(=O)c1/N=N/c1ccc([N+](=O)[O-])cc1Cl
EC50 (Beta-galactosidase): > 40 µM (inactive) | IC50 [9]: > 40 µM (not active)

OC[C@H]1O[C@@H](n2cnc3cc(Cl)c(Cl)cc32)[C@H](O)[C@@H]1O [DICHLORORIBOBENZIMIDAZOLE]
AC50 [11]: 3.76 µM (active)

O=S(=O)(Nc1cccc2ccccc12)c1ccc(Cl)cc1
IC50 (Hexokinase HKDC1): > 80 µM (inactive) | IC50 (Hexokinase-1): > 80 µM (inactive)

c1ccc2c(CSc3nnc(-c4ccncc4)o3)cccc2c1
AC50 (Cytochrome P450 1A2): 3.16 µM (inconclusive) | AC50 [6]: 0.143 µM (active) | AC50 (Cytochrome P450 2D6): 0.501 µM (inconclusive) | AC50 [8]: 2.93 µM (active)
